From patent US20250059188A1, “ARYLSULPHONAMIDE COMPOUNDS” (Anaxis Pharma Pty Ltd, priority 2021, published 2025)

Experiments:
[1] = target: human MLKL (full length) (Homo sapiens (Human), UniProt Q8NB16); assay: KINOMEscan binding assay, human MLKL (full length); details: equilibrium dissociation constant
How it was run: (§1)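 Kd values come from dose-response fits to the Hill equation (Hill slope −1, Levenberg–Marquardt least squares). Compound competed with bead-bound ligand for tagged kinase, and remaining kinase was measured by qPCR after elution. Dilution series: 11 points, 3-fold, 1% DMSO final, top 30,000 nM in most runs.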

[2] = target: human RIPK1 (Homo sapiens (Human), UniProt Q13546); assay: KINOMEscan binding assay, human RIPK1; details: equilibrium dissociation constant
Sequence of human RIPK1 (Q13546 whole entry): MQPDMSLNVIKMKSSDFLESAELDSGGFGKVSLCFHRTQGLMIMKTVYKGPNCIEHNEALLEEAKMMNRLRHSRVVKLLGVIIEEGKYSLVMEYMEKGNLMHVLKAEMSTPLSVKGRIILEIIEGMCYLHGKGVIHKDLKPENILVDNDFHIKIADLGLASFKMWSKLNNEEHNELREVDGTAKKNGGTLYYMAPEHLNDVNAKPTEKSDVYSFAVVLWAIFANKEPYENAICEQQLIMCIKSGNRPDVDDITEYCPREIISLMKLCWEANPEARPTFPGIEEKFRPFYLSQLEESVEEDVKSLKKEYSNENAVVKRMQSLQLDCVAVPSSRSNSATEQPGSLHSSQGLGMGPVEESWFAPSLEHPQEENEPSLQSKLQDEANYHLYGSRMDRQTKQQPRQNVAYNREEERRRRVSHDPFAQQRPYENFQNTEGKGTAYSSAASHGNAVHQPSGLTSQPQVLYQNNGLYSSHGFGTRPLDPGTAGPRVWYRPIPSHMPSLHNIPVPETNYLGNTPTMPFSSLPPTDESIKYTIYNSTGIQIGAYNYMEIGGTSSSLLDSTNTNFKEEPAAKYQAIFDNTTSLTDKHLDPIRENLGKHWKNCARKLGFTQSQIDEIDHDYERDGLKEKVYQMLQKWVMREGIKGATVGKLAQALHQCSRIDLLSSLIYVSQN
How it was run: as §1

[3] = target: human RIPK3 (Homo sapiens (Human), UniProt Q9Y572); assay: KINOMEscan binding assay, human RIPK3; details: equilibrium dissociation constant
Sequence of human RIPK3 (Q9Y572 whole entry): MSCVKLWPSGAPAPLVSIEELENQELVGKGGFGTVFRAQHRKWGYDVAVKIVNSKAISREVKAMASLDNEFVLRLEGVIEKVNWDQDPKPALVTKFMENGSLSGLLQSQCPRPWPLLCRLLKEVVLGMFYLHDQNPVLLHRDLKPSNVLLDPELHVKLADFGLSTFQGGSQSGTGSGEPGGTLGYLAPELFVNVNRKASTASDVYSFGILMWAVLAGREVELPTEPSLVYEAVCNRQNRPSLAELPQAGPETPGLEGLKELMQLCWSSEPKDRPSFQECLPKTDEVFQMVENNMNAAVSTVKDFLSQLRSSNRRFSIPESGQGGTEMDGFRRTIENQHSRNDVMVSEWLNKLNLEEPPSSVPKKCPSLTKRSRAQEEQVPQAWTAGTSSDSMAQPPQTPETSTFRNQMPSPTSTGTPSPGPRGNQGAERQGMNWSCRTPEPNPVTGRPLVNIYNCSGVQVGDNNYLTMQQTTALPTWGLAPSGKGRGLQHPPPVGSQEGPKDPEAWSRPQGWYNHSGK
How it was run: as §1

[4] = test system: U937 human histiocytic leukemia cell line; assay: Inhibition of TSQ induced necroptosis in U937 cells (CellTitre-Glo); details: Homo sapiens, U-937, TSQ cocktail (TNF, Smac mimetic, Q-VD-OPh), 48 hours, read-out: Inhibition of TSQ-induced necroptosis (IC50 cell-based assay)
Procedure: Cellular Assay: Screening Compounds for Inhibition of TSQ Induced Necroptosis, 384 Well Plate Format.
(§2) • Cell Line ID: U937 human histiocytic leukemia cell line. • Cell Concentration (cells/well): Final cell density is 20000 cells per well. • Cell growth medium: HT-RPMI medium+7.4% Fetal Bovine Serum (FBS). Cells are cultured in Corning 150 cm^2 tissue culture flasks with vented caps at 37° C./5% CO2. • Incubation: Plates were incubated at 37° C./5% CO2 in a humidified incubator for 48 hours following addition of compounds and death stimuli (TSQ cocktail). • Compound concentration: 36 μM starting concentration, 1:3 dilution, 10 point • DMSO final concentration (% v/v): 0.3%. Compounds in TSQ Cocktail (T: TNF; S: Smac Mimetic; Q: Q-VD-OPh) and their Final Concentrations: • hTNF-Fc (100 ng/ml)—produced by standard procedures as shown in Bossen et al., J. Biol. Chem., 2006, 281(20), 13964-13971. • Compound A (500 nM) —Smac mimetic, Tetralogic and SYNthesis med chem • Q-VD-OPh (10 μM) —MP Biomedicals
(§3) The cellular assay was carried out according to the following steps: • 1. Each well was prepared by sequential addition of: • a. DMSO (control; columns 1-2 and 23-24) or compound in DMSO—addition was performed using acoustic transfer of nL volumes of stock compound to give final test concentrations of 36, 12, 4, 1.3, 0.44, 0.148, 0.049, 0.016, 0.005 and 0.002 μM. All wells were backfilled with DMSO to a final total volume in the well of 100 nL. • b. Following compound/DMSO addition in step (a), 40 μL of cell suspension (5×10^5 cells/mL) was added to provide a final cell concentration of 20,000 cells per well, and • c. Following cell addition in step (b), 10 μL of 5×TSQ cocktail (except to positive controls; columns 1 and 23) was added to each well. • 2. After 48 hours, plate was removed from the 37° C. incubator and equilibrated to room temperature for 45 minutes. • 3. 15 μL of room temperature CellTitre-Glo2™ (Promega™) was added to each well. • 4. Shook plates for 2 minutes (˜600 rpm) and incubated at room temperature for 15 minutes to allow signal to stabilise. • 5. Read luminescence readout on a plate reader.
Percent viability was calculated for each compound according to equation (2): […]
(§4) 10 point titration curves were fitted with the 4 parameter logistic nonlinear regression model and the IC50 reported reflect the inflection point of the curve for curve fitting.
(§5) • Assay involving the TSQ cocktail (T: TNF; S: Smac mimetic; Q: Q-VD-OPh): TSQ treatment ensures that cells specifically undergo necroptotic cell death. TNF activates the TNF receptor, Smac mimetic directs the signal away from proinflammatory signaling and toward the RIPK1/RIPK3-mediated cell death pathways, and Q-VD-OPh ensures that the apoptotic response is blocked leaving only the programmed necrosis response. The compounds' activity (solution in DMSO) tested in this TSQ-induced assay was evaluated by determining the number of viable cells in culture by measuring the amount of ATP present as measured by CelltiterGlo. • Counter screen: In parallel, all compounds were tested for their ability to affect cell viability. The same U937 cells were treated with compound in DMSO without the TSQ cocktail. This counter screen enabled evaluation of off-target effects. In this case, cell viability was measured by CelltiterGlo.

[5] = test system: U937 cells; assay: Counter screen: U937 cell viability without TSQ cocktail (off-target effect); parameters: species or system human; details: Homo sapiens, U-937, compound without TSQ cocktail, read-out: Off-target effect (IC50 cell-based assay)
Procedure: as §2, §3, §4, §5

Sequence of human MLKL (full length) (Q8NB16 whole entry): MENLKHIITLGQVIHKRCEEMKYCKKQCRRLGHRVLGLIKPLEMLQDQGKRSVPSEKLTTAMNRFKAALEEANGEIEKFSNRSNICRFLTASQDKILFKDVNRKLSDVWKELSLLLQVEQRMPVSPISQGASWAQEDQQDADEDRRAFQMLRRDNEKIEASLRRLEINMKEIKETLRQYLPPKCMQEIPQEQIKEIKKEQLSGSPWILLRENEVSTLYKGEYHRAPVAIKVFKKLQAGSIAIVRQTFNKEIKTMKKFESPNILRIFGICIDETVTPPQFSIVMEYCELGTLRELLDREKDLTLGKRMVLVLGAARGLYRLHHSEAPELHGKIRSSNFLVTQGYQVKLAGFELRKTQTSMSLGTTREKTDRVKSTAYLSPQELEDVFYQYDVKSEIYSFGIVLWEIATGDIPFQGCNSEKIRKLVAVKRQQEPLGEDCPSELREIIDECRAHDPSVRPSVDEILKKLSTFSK

Structure (SMILES) | Kd [1] | Kd [2] | Kd [3] | IC50 [4] | IC50 [5]
C[C@H](Oc1cc(-c2nn(C)c3c(-c4cccc(Cl)c4)cnc(N)c23)ccc1NS(=O)(=O)C(F)F)c1ccc(F)cc1 [Compound 84, (S)-N-(4-(4-amino-7-(3-chlorophenyl)-1-methyl-1H-pyrazolo[4,3-c]pyridin-3-yl)-2-(1-(4-fluorophenyl)ethoxy)phenyl)-1,1-difluoromethanesulfonamide] | 0.001 to 0.1 µM | > 10 µM | > 10 µM | 1 to 10 µM | > 10 µM
CC(C)n1nc(-c2ccc(NS(=O)(=O)C(F)F)c(O[C@@H](C)c3ccc(F)cc3)c2)c2c(N)ncc(-c3ccncc3)c21 [Compound 50, (S)-N-(4-(4-amino-1-isopropyl-7-(pyridin-4-yl)-1H-pyrazolo[4,3-c]pyridin-3-yl)-2-(1-(4-fluorophenyl)ethoxy)phenyl)-1,1-difluoromethanesulfonamide] | < 0.001 µM | > 10 µM | > 10 µM | 0.01 to 1 µM | > 10 µM
Cc1nn(C2CCN(C)C(C)(C)C2)cc1-c1cnc(N)c2c(-c3ccc(NS(=O)(=O)C(F)F)c(O[C@@H](C)c4ccc(F)cc4)c3)nn(C)c12 (stereo partly drawn) [Compound 156, N-(4-(4-amino-1-methyl-7-(3-methyl-1-(1,2,2-trimethylpiperidin-4-yl)-1H-pyrazol-4-yl)-1H-pyrazolo[4,3-c]pyridin-3-yl)-2-((S)-1-(4-fluorophenyl)ethoxy)phenyl)-1,1-difluoromethanesulfonamide] | 0.001 to 0.1 µM | > 10 µM | > 10 µM | 0.01 to 1 µM | > 10 µM
C[C@H](Oc1cc(-c2nn(C)c3c(-c4cnn(C5CN(CC(F)(F)F)C5)c4)cnc(N)c23)ccc1NS(=O)(=O)C(F)F)c1ccc(F)cc1 [Compound 77, (S)-N-(4-(4-amino-1-methyl-7-(1-(1-(2,2,2-trifluoroethyl)azetidin-3-yl)-1H-pyrazol-4-yl)-1H-pyrazolo[4,3-c]pyridin-3-yl)-2-(1-(4-fluorophenyl)ethoxy)phenyl)-1,1-difluoromethanesulfonamide] | < 0.001 µM | > 10 µM | > 10 µM | < 0.01 µM | > 10 µM
Cn1cc(-c2cnc(N)c3c(-c4ccc(NS(=O)(=O)C(F)F)c(OCc5ccc(F)cc5)c4)nn(C)c23)cn1 [Compound 16, N-(4-(4-amino-1-methyl-7-(1-methyl-1H-pyrazol-4-yl)-1H-pyrazolo[4,3-c]pyridin-3-yl)-2-((4-fluorobenzyl)oxy)phenyl)-1,1-difluoromethanesulfonamide] | < 0.001 µM | > 10 µM | > 10 µM | 1 to 10 µM | > 10 µM
C[C@H](Oc1cc(-c2nn(C)c3c(C#CC4CCOCC4)cnc(N)c23)ccc1NS(=O)(=O)C(F)F)c1ccc(F)cc1 [Compound 58, (S)-N-(4-(4-amino-1-methyl-7-((tetrahydro-2H-pyran-4-yl)ethynyl)-1H-pyrazolo[4,3-c]pyridin-3-yl)-2-(1-(4-fluorophenyl)ethoxy)phenyl)-1,1-difluoromethanesulfonamide] | < 0.001 µM | > 10 µM | > 10 µM | 0.01 to 1 µM | > 10 µM
C[C@H](Oc1cc(-c2nn(C)c3c(-c4cnc(N5CCN(C)CC5)nc4)cnc(N)c23)ccc1NS(=O)(=O)C(F)F)c1ccc(F)cc1 [Compound 105, (S)-N-(4-(4-amino-1-methyl-7-(2-(4-methylpiperazin-1-yl)pyrimidin-5-yl)-1H-pyrazolo[4,3-c]pyridin-3-yl)-2-(1-(4-fluorophenyl)ethoxy)phenyl)-1,1-difluoromethanesulfonamide] | < 0.001 µM | > 10 µM | > 10 µM | 0.01 to 1 µM | > 10 µM
COCC(Oc1cc(-c2nn(C)c3c(-c4cnn(C5CCOCC5)c4)cnc(N)c23)ccc1NS(=O)(=O)C(F)F)c1ccc(F)cc1 (racemic) [Compound 102, N-(4-(4-amino-1-methyl-7-(1-(tetrahydro-2H-pyran-4-yl)-1H-pyrazol-4-yl)-1H-pyrazolo[4,3-c]pyridin-3-yl)-2-(1-(4-fluorophenyl)-2-methoxyethoxy)phenyl)-1,1-difluoromethanesulfonamide] | < 0.001 µM | > 10 µM | > 10 µM | 0.01 to 1 µM | > 10 µM
CC(C)N(C)CC(C)n1cc(-c2cnc(N)c3c(-c4ccc(NS(=O)(=O)C(F)F)c(O[C@@H](C)c5ccc(F)cc5)c4)nn(C)c23)cn1 (stereo partly drawn) [Compound 101, N-(4-(4-amino-7-(1-(1-(isopropyl(methyl)amino)propan-2-yl)-1H-pyrazol-4-yl)-1-methyl-1H-pyrazolo[4,3-c]pyridin-3-yl)-2-((S)-1-(4-fluorophenyl)ethoxy)phenyl)-1,1-difluoromethanesulfonamide] | < 0.001 µM | > 10 µM | > 10 µM | < 0.01 µM | > 10 µM
Cn1nc(-c2ccc(NS(=O)(=O)C(F)F)c(OC3(c4ccc(F)cc4)CC3)c2)c2c(N)ncc(-c3cnn(C4CCOCC4)c3)c21 [Compound 140, N-(4-(4-amino-1-methyl-7-(1-(tetrahydro-2H-pyran-4-yl)-1H-pyrazol-4-yl)-1H-pyrazolo[4,3-c]pyridin-3-yl)-2-(1-(4-fluorophenyl)cyclopropoxy)phenyl)-1,1-difluoromethanesulfonamide] | 0.001 to 0.1 µM | > 10 µM | > 10 µM | 0.01 to 1 µM | > 10 µM
C[C@H](Oc1cc(-c2cnn3c(-c4cnn(C5CCOCC5)c4)cnc(N)c23)ccc1NS(=O)(=O)C(F)F)c1ccc(F)cc1 [Compound 36, (S)-N-(4-(4-amino-7-(1-(tetrahydro-2H-pyran-4-yl)-1H-pyrazol-4-yl)pyrazolo[1,5-a]pyrazin-3-yl)-2-(1-(4-fluorophenyl)ethoxy)phenyl)-1,1-difluoromethanesulfonamide] | < 0.001 µM | > 10 µM | > 10 µM | < 0.01 µM | > 10 µM
CC#Cc1cnc(N)c2c(-c3ccc(NS(=O)(=O)C(F)F)c(O[C@@H](C)c4ccc(F)cc4)c3)nn(C)c12 [Compound 56, (S)-N-(4-(4-amino-1-methyl-7-(prop-1-yn-1-yl)-1H-pyrazolo[4,3-c]pyridin-3-yl)-2-(1-(4-fluorophenyl)ethoxy)phenyl)-1,1-difluoromethanesulfonamide] | < 0.001 µM | > 10 µM | > 10 µM | 0.01 to 1 µM | > 10 µM
C[C@H](Oc1cc(-c2nn(C)c3c(-c4cnn(C5CN(C)C5)c4)cnc(N)c23)ccc1NS(=O)(=O)C(F)F)c1ccc(F)cc1 [Compound 92, (S)-N-(4-(4-amino-1-methyl-7-(1-(1-methylazetidin-3-yl)-1H-pyrazol-4-yl)-1H-pyrazolo[4,3-c]pyridin-3-yl)-2-(1-(4-fluorophenyl)ethoxy)phenyl)-1,1-difluoromethanesulfonamide] | < 0.001 µM | > 10 µM | > 10 µM | 0.01 to 1 µM | > 10 µM
